Laboratory results: the supplement of paper PMC10307832

Tests used:
Assay in all cases: relative viability (nuclei count vs DMSO), 5 days (fraction); higher = more cells survive
Kobe2602 + Pemetrexed = compound: C1=CC(=CC=C1NC(=S)NNC2=C(C=C(C=C2[N+](=O)[O-])C(F)(F)F)[N+](=O)[O-])F [Kobe2602] + Nc1nc2[nH]cc(CCc3ccc(C(=O)N[C@@H](CCC(=O)O)C(=O)O)cc3)c2c(=O)[nH]1 [Pemetrexed] (partner 0.2 µM)
Outline: (§1)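 Five library-drug doses in √10 steps were combined with a fixed anchor-drug dose, or a single drug was given alone, by pin tool to lung cancer cell lines in 1536-well plates the day after seeding. Nuclei were stained and counted after 5 days. Relative viability is the nuclei count in treated wells over that in vehicle wells, taken as the median of duplicate plates.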

Kobe2602 + Vorinostat = compound: C1=CC(=CC=C1NC(=S)NNC2=C(C=C(C=C2[N+](=O)[O-])C(F)(F)F)[N+](=O)[O-])F [Kobe2602] + O=C(CCCCCCC(=O)Nc1ccccc1)NO [Vorinostat] (partner 1 µM)
Outline: as §1

Zosuquidar + Tozasertib = compound: O[C@@H](COc1cccc2ncccc12)CN1CCN([C@@H]2c3ccccc3[C@@H]3[C@H](c4ccccc42)C3(F)F)CC1 [Zosuquidar] + Cc1cc(Nc2cc(N3CCN(C)CC3)nc(Sc3ccc(NC(=O)C4CC4)cc3)n2)n[nH]1 [Tozasertib] (partner 0.1 µM)
Outline: as §1

Zosuquidar + Olaparib = compound: O[C@@H](COc1cccc2ncccc12)CN1CCN([C@@H]2c3ccccc3[C@@H]3[C@H](c4ccccc42)C3(F)F)CC1 [Zosuquidar] + O=C(c1cc(Cc2n[nH]c(=O)c3ccccc23)ccc1F)N1CCN(C(=O)C2CC2)CC1 [Olaparib] (partner 8 µM)
Outline: as §1

Cell Line	relative viability (Kobe2602 + Pemetrexed; first compound 0.2 µM)	relative viability (Kobe2602 + Pemetrexed; first compound 0.6325 µM)	relative viability (Kobe2602 + Pemetrexed; first compound 2 µM)	relative viability (Kobe2602 + Pemetrexed; first compound 6.325 µM)	relative viability (Kobe2602 + Pemetrexed; first compound 20 µM)	relative viability (Kobe2602 + Vorinostat; first compound 0.2 µM)	relative viability (Kobe2602 + Vorinostat; first compound 0.6325 µM)	relative viability (Kobe2602 + Vorinostat; first compound 2 µM)	relative viability (Kobe2602 + Vorinostat; first compound 6.325 µM)	relative viability (Kobe2602 + Vorinostat; first compound 20 µM)	relative viability (Zosuquidar + Tozasertib; first compound 0.01 µM)	relative viability (Zosuquidar + Tozasertib; first compound 0.03162 µM)	relative viability (Zosuquidar + Tozasertib; first compound 0.1 µM)	relative viability (Zosuquidar + Tozasertib; first compound 0.3162 µM)	relative viability (Zosuquidar + Tozasertib; first compound 1 µM)	relative viability (Zosuquidar + Olaparib; first compound 0.01 µM)	relative viability (Zosuquidar + Olaparib; first compound 0.03162 µM)	relative viability (Zosuquidar + Olaparib; first compound 0.1 µM)	relative viability (Zosuquidar + Olaparib; first compound 0.3162 µM)	relative viability (Zosuquidar + Olaparib; first compound 1 µM)
PC-3 [JPC-3]	1.26	1.33	1.11	1.11	1.06	0.943	1.1	0.787	0.874	0.771	0.844	0.835	0.879	0.824	0.897	1.09	1.18	0.873	1.09	1.1
LOU-NH91	0.351	0.361	0.379	0.391	0.392	0.886	1.02	0.837	0.905	0.863	0.697	0.624	–	0.706	0.71	0.845	0.904	0.728	0.97	0.873
BEN	0.736	0.803	0.724	0.846	0.98	0.634	0.606	0.581	0.56	0.625	0.482	0.489	0.503	0.563	0.431	1.15	0.953	0.883	1.02	0.97
NCI-H2085	0.944	0.882	0.959	0.904	0.901	0.772	0.817	0.794	0.765	0.733	0.852	0.886	0.778	0.835	0.856	0.706	0.809	–	0.736	0.751
LC-2-ad	0.292	0.296	0.285	0.275	0.264	0.664	0.706	0.719	0.649	0.722	0.461	0.491	0.51	0.522	0.463	0.689	0.67	0.693	0.716	0.719
EPLC-272H	0.353	0.35	0.301	0.318	0.279	0.494	0.676	0.557	0.402	0.479	0.192	0.245	0.358	0.261	0.253	0.755	0.912	0.909	0.96	0.745
EKVX	0.416	0.394	0.404	0.41	0.408	0.678	0.879	0.652	0.757	0.672	0.394	0.436	0.389	0.369	0.348	0.854	0.833	–	0.913	0.847
NCI-H1666	0.81	0.861	1.01	0.934	0.861	1.06	1.04	1.13	1.01	0.981	0.596	0.62	0.666	0.587	0.592	0.75	0.795	0.73	0.815	0.787
HCC-15	0.238	0.216	0.223	0.229	0.211	0.908	0.912	0.814	0.815	0.812	0.257	0.323	0.416	0.223	0.321	0.717	0.725	0.799	0.72	0.747
LCLC-103H	0.494	0.502	0.454	0.438	0.449	0.802	0.813	0.776	0.839	0.81	0.388	0.462	0.445	0.462	0.496	0.743	0.721	0.808	0.759	0.695
NCI-H2405	1.07	1.21	0.888	1.1	1.08	1.05	1.34	0.998	1.04	1.02	0.774	0.762	0.724	0.747	0.74	0.903	0.758	0.756	0.95	0.829
NCI-H1915	0.489	0.498	0.458	0.503	0.45	0.523	0.549	0.478	0.534	0.557	0.406	0.453	0.447	0.461	0.405	0.267	0.261	0.268	0.265	0.291
NCI-H661	0.893	0.947	0.913	0.932	0.924	0.777	0.799	0.753	0.825	0.827	0.354	0.313	0.353	0.328	0.33	0.718	0.731	0.737	0.727	0.759
NCI-H1650	0.394	0.355	0.363	0.335	0.374	0.598	0.617	0.642	0.539	0.527	0.43	0.426	0.478	0.469	0.371	0.95	0.812	0.725	0.714	0.742
NCI-H647	0.178	0.22	0.174	0.172	0.184	0.613	0.582	0.64	0.583	0.601	0.26	0.266	0.564	0.228	0.284	0.564	0.519	0.559	0.674	0.566
HCC-366	0.157	0.179	0.16	0.146	0.328	0.311	0.357	0.329	0.273	0.296	0.153	0.395	0.195	0.121	0.102	0.314	0.377	0.415	0.324	0.324
NCI-H2087	0.649	0.653	0.584	0.698	0.649	0.628	0.799	0.64	0.714	0.568	0.266	–	0.27	0.228	0.218	0.586	0.557	0.603	0.578	0.539
NCI-H522	1.06	1.19	0.974	1.15	1.01	0.949	1.05	0.964	1	0.898	0.536	0.537	0.585	0.601	0.556	0.724	0.623	0.684	0.766	0.668
SK-LU-1	0.969	0.978	1.02	0.963	0.953	0.734	0.86	0.856	0.836	0.823	0.292	0.359	0.417	0.353	0.332	0.517	0.535	0.485	0.531	0.435
HOP-62	0.43	0.336	0.312	0.323	0.316	0.707	0.717	0.559	0.763	0.688	0.363	0.312	0.396	0.341	0.308	0.461	0.548	0.485	0.665	0.384
NCI-H2126	0.647	0.67	0.629	0.736	0.686	0.811	0.819	0.737	0.76	0.855	0.815	0.861	–	0.918	0.796	0.909	0.868	0.849	0.922	0.917
NCI-H441	0.285	0.217	0.244	0.279	0.288	0.756	0.711	0.808	0.646	0.697	0.475	0.723	0.819	0.709	0.609	0.708	0.61	0.738	0.482	0.525
NCI-H2170	0.293	0.26	0.242	0.295	0.263	0.765	0.813	0.732	0.717	0.84	0.788	0.733	0.825	0.622	0.738	0.546	0.629	0.612	0.63	0.562
SW 1573	0.786	0.96	0.82	0.84	0.598	0.743	0.868	0.676	0.868	0.77	0.171	0.147	0.14	0.182	0.157	0.427	0.357	0.544	0.471	0.446
H3255	0.549	0.544	0.57	0.629	0.584	0.772	0.841	0.776	0.853	0.78	0.734	0.737	0.718	0.711	0.604	0.549	0.559	0.558	0.553	0.541
EMC-BAC-2	0.459	0.453	0.445	0.492	0.457	0.494	1.01	0.425	0.593	0.462	0.278	0.33	0.285	0.274	0.261	0.467	0.487	0.529	0.535	0.482
SW 900	0.472	0.489	0.479	0.487	0.493	0.677	0.645	0.492	0.476	0.602	0.581	0.583	0.573	0.665	0.473	0.853	0.93	–	1.06	0.838
